Consider three compounds from patent US20190255175A1, “ACTIVATION OF TRPA1+ NOCICEPTORS IN THE VAGUS NERVE ATTENUATES SYSTEMIC INFLAMMATION” (THE FEINSTEIN INSTITUTE FOR MEDICAL RESEARCH, priority 2018, published 2019).

Assay [1] has as its target T1, TRPA1+ neurons (Mus musculus, UniProt Q8BLA8).
T1 construct: from tissue; host or cells: living mice (wild type and TRPA1 KO), systemic i.p. dosing; TRPA1+ neurons
Description: Pharmacological stimulation of TRPA1+ neurons with polygodial in endotoxemic mice; TNF by ELISA. It counts as in vivo. Conditions: wildtype mice; polygodial 5 mg/kg ip 30 min before endotoxin 0.1 mg/kg ip; collected after 90 min. Here is the method:
(§1) FIG. 2A-2D. […] A) Serum: wildtype mice received intraperitoneal administration of polygodial (5 mg/kg) (n=6) or vehicle (n=5). After 30 minutes, mice were subjected to endotoxemia (0.1 mg/kg endotoxin, i.p.). Blood was collected after 90 min and serum TNF levels were determined by ELISA. *p<0.05. B) Spleen: wildtype mice received intraperitoneal administration of polygodial (5 mg/kg) (n=7) or vehicle (n=6). After 30 minutes, mice were subjected to endotoxemia (0.1 mg/kg endotoxin, i.p.). Spleens were collected after 90 min and serum TNF levels were determined by ELISA. *p<0.05. C, D) Pharmacological Stimulation of TRPA1+ neurons fail to attenuate TNF levels in endotoxemic TRPA1 KO mice. C) Serum: TRPA1 KO mice received intraperitoneal administration of polygodial (5 mg/kg) (n=9) or vehicle (n=8). After 30 minutes, mice were subjected to endotoxemia (0.1 mg/kg endotoxin, i.p.). Blood was collected after 90 min and serum TNF levels were determined by ELISA. D) Spleen: TRPA1 KO mice received intraperitoneal administration of polygodial (5 mg/kg) (n=9) or vehicle (n=8). After 30 minutes, mice were subjected to endotoxemia (0.1 mg/kg endotoxin, i.p.). Spleens were collected after 90 min and serum TNF levels were determined by ELISA.
(An ELISA detects its analyte on a solid surface through an enzyme-linked reagent.)

Assay [2] concerns TRPA1+ neurons. Described as above. It counts as in vivo. Conditions: TRPA1 KO mice; polygodial 5 mg/kg ip 30 min before endotoxin 0.1 mg/kg ip; collected after 90 min. Here is the method: as §1
Assay [3] addresses T2, TRPA1+ fibers of the vagus nerve (Mus musculus, UniProt Q8BLA8).
T2 construct: optovin was applied directly to nerve; from tissue; also TRPA1 KO and α7 nAChR KO groups
Description: Optovin applied to the vagus nerve with 405 nm optical stimulation, followed by LPS endotoxemia; serum TNF. Type of assay: in vivo, mice. Here is the method:
(§2) FIG. 1A-1C. Stimulation of sensory TRPA1+ vagus fibers attenuates serum TNF levels in endotoxemic mice. A) Wild type mice were treated with optovin directly to the vagus nerve, followed by exposure to no light (n=9) or 405 nm light (n=10). Mice were also subjected to a proximal vagotomy (n=12) cutting off afferent signaling to the brain. These mice were also treated with optovin and stimulated with 405 nm light. B) TRPA1 KO mice were treated with optovin directly to the vagus nerve. The mice were then treated with no light (n=9) or 405 nm light (n=8). C) α7 KO mice were treated with optovin directly to the vagus nerve. The mice were then treated with no light (n=10) or 405 nm light (n=12). Two asterisks indicate p<0.01.
(§3) Optical stimulation was generated by Thor Labs LED driver DC4100, with a 405 nm LED model M405L3 (Newton, N.J.). Sham mice underwent surgical control up to the point of identifying the cervical vagus nerve, without isolating it from the bundle. In both conditions 2 μl of optovin was applied directly on the nerve for 2 minutes prior to stimulation. Sham animals received no light applied to the nerve. The stimulated group received 405 nm light 1000 mA, 10 hz, with a 10% duty cycle for 5 minutes with an approximate power of 80-85 μW. Animals then recovered for 2 hours and were administered LPS (8 mg/kg) via intraperitoneal (ip) injection. Mice were euthanized 1.5 hours after LPS administration, with serum collected.
(§4) All vagotomized animas had their vagus nerve isolated. Prior to the vagotomy a 6.0 suture was tied around the vagus nerve. The nerve was then cut proximally or above (blocking left vagus nerve signaling to the brain while signaling to the periphery remained intact) to where 2 μl of optovin was to be added. All mice were stimulated using the same parameters as previously indicated. Animals then recovered for 2 hours and were administered LPS (8 mg/kg) via intraperitoneal (ip) injection. Mice were euthanized 1.5 hours after LPS administration, with serum collected.
(§5) Vagus nerve stimulation has been used as a treatment for peripheral inflammation in both rodents and humans^18-21. TRPA1 is an ion channel that has been indicated in neural sensing of inflammation within the skin and lungs 22-24. To determine TRPA1's role in the inflammatory reflex, photochemical stimulation of TRPA1+ fibers of the vagus nerve was carried out using a molecule called optovin. Optovin selectively binds to TRPA1 making it photoactive to 405 nm light^25. To directly stimulate the TRPA1+ vagus nerve fibers, optovin was applied directly to nerve, with one group unstimulated and one group stimulated with the 405 nm light for 5 minutes with LPS (8 mg/kg) administer 2 hours later. […]

Assay [4] concerns TRPA1+ fibers of the vagus nerve. The assay is described as above. It counts as in vivo, mice. Conditions: TRPA1 KO mice; optovin + 405 nm light vs no light; LPS 8 mg/kg. Here is the method:
as §2, §3, §4, §5

A further assay concerns nodose ganglion neurons. Description: Whole-cell patch clamp recordings of nodose ganglion neurons. Type of assay: cell-based, mice. Conditions: nodose neurons held at −65 mV; IL-1β 20 μg/ml. Here is the method:
Whole-cell patch clamp recordings were made with glass pipettes pulled on a P-97 electrode puller (Sutter Instruments, Novato, Calif.). The resistance of the pipettes was 2-4 MΩ when filled with an intracellular solution (in mM: CsCl 140, HEPES 10, EGTA 5, Mg-ATP 2, NaGTP 0.3, MgCl2 2, Phosphocreatine 10, pH 7.25 adjusted with CsOH). Cells were superfused at a rate of 2 ml/min with an external bath solution containing the following (in mM): 150 NaCl, 2.5 KCl, 10 HEPES, 10 D-glucose, 2 CaCl2, and 1 MgCl2, pH 7.3-7.4. Experiments were performed at room temperature (22-24° C.). Currents from neurons were monitored with an Multiclamp 700B amplifier (Molecular Devices, Union City, Calif.), acquired through Digidata 1550B (Molecular Devices) onto a computer using pClamp 11 software (Molecular Devices). Data were analyzed using Clampfit 11 (Molecular Devices). All chemicals used for electrophysiological recordings were purchased from Sigma. All drugs and solutions were made fresh from drug stock solutions.
Using patch clamp recordings, IL-1β responses were recorded in nodose ganglion neurons. Application of IL-1β (20 μg/ml) induced calcium influx as indicated by increase of fluorescence in 6 out of 332 (1.8%) sensory nodose ganglion neurons from VGlut2-GCaMP3 mice. Next, whole-cell patch clamp recordings were carried out on the same neurons that responded to IL-1β in calcium influx analysis. When the membrane potential was held at −65 mV, bath application of IL-1β (20 μg/ml) produced slow inward currents in 4 out of 332 (1.2%) nodose neurons. The amplitude of IL-1β induced currents are 108±23 pA (n=4). […] In current-clamp mode, IL-1β reduced action potential threshold from −25±2 mV to −31±3 mV (n=4). […] To further determine the potential interaction of TRPA1 with IL-1β, nodose ganglion neurons from TRPA1 KO mice were examined in a culture system. […] IL1R1 co-localizes with TRPA1 on nodose ganglion neurons, as was determined using immunohistochemical staining.
On the technique in general: The patch-clamp technique gives a direct electrical read-out from membranes.

T2 sequence (Q8BLA8 whole entry): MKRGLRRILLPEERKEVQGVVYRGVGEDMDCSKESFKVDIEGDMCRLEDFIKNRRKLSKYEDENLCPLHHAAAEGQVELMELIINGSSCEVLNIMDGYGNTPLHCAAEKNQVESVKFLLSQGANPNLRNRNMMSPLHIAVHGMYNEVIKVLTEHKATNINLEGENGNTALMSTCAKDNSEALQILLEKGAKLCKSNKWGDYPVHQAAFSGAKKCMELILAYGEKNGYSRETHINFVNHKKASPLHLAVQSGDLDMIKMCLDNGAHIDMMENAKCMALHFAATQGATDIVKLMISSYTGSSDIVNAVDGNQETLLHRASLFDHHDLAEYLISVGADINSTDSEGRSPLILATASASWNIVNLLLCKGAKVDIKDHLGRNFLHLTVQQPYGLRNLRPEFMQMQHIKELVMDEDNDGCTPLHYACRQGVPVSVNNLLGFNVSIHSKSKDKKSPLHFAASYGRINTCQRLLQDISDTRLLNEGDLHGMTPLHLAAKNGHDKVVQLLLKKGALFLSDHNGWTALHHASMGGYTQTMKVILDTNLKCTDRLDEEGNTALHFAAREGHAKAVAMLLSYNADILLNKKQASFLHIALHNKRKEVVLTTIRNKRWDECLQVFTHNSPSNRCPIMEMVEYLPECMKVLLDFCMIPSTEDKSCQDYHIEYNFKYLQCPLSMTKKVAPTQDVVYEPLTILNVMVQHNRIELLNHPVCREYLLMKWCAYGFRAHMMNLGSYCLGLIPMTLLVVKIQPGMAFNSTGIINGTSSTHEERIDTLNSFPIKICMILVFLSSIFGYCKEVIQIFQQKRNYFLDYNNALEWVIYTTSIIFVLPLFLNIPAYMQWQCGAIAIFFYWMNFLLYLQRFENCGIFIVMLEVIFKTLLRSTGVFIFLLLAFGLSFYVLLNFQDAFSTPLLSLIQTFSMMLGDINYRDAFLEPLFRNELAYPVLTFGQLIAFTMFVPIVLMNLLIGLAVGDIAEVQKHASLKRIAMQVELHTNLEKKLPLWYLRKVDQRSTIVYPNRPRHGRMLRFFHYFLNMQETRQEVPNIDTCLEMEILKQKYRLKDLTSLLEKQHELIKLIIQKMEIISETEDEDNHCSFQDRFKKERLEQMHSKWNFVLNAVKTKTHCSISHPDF
T1 sequence (Q8BLA8 whole entry): as above

`CC1(C)CCC[C@]2(C)[C@@H](C=O)C(C=O)=CC[C@@H]12` [polygodial]: on TRPA1+ neurons [1], the “TNF levels in serum” value is recorded as “attenuates TNF levels” and the “TNF levels in spleen” value is listed as “attenuates TNF levels”. Besides, in the assay with TRPA1+ neurons [2], the “TNF levels in serum” value was “no significant reduction” and the “TNF levels in spleen” value is on record as “no significant reduction”.

With `Cc1cc(/C=C2/SC(=S)NC2=O)c(C)n1-c1cccnc1` [optovin], the “TNF levels in response to LPS” value is given as “no significant reduction in TNF levels” in assay [3] (proximally vagotomized mice, optovin + 405 nm light, LPS 8 mg/kg); “significantly reduced TNF levels” in assay [3] (wild type mice, optovin on vagus nerve, 405 nm light 5 min vs no light, LPS 8 mg/kg ip 2 h later, serum 1.5 h after LPS); “no significant reductions in TNF levels” in assay [4]. In assay [3] (α7 nAChR KO mice, optovin + 405 nm light vs no light, LPS 8 mg/kg), the “serum TNF levels” value is listed as “did not significantly reduce serum TNF levels”.

As to `Cn1cnc2ncn(Cc3nc(CCc4ccc(Cl)cc4)no3)c(=O)c21` [AM0902, reference compound], the “Block of inward currents after IL-1β application” value in the assay on nodose ganglion neurons is “completely blocked”.
